One data set has as its system mice. Description: Acute oral toxicity in mice. The format is in vivo. As to conditions: single oral administration, 1 g/kg. The source says: Furthermore, the compounds of the invention and their derived salts have a very low toxicity.
Data set [1] has as its system saphenous vein of rabbits. In words: Contractile effect on rabbit saphenous vein rings precontracted by depolarizing physiological solution (40 mM potassium). Further details: species or system rabbit (New Zealand). Particulars: Oryctolagus cuniculus, precontracted at 40 mM potassium; for Emax: % of maximum contraction induced by depolarizing hyperpotassic solution, read-out: Emax (% of maximum contr.); for EC50: read-out: ED50 (the source's name). As for the experimental part:
For the in vitro studies, the compounds are made soluble in a pure aqueous solution or a solution containing DMSO (dimethyl sulfoxide).
Contractile effects are measured, in vitro and under static conditions, on capacitance or resistance vascular rings of the saphenous, femoral, jugular, mesenteric, and caval veins; and on the femoral, carotid, basilar, mesenteric, and thoracic or abdominal aortic arteries, in rats (Wistar, 200 to 250 g), rabbits (New Zealand, 2 to 2.5 kg), and guinea pigs (Dunkin Hartley, 250 to 300 g).
The rings are placed in an isolated organ chamber (25 mL for capacitance vessels and 2.5 mL for resistance vessels, as per Mulvany), kept in isometric conditions by two stiff cables inserted into the interior of the vessel, avoiding any damage to the endothelium. The vessels are washed in a modified Krebbs solution (in mM: NaCl=118; KCl=4.6; ClCl2 =2.5; MgSO4 =1.2; KH2 PO4 =1.17; NcHCO3 =25; glucose=11), permanently aerated by a gaseous mixture at 95% O2 and 5% CO2, at pH=7.4 and set thermostatically at 37° C. The rings are taken to their optimal point of the tension-length ratio.
The tensions developed generate an electrical signal through a strength sensor (Wheatstone bridge). […] The pharmacological studies are carried out after some preliminary contractile stimulations standardized by a depolarizing solution (hyperpotassic solution obtained by replacing NaCl by KCl in equimolar quantities), rinses, and balancing periods in pure physiological solution. Presence of the endothelium is verified by the relaxation induced by increasing concentrations of acetylcholine after stabilization of a vascular precontraction.
The contraction forces developed by the vascular rings in response to the different compounds are studied on quiescent or electrically stimulated (5-8 Hz) vessels, using a hyperpotassic depolarizing physiological solution (KCl: 20, 40 mM), using noradrenaline (increasing concentrations), or using serotonin (increasing concentrations).
The contractions are expressed in mg of force or as a percentage of maximum contraction at depolarization by a hyperpotassic physiological solution.
The compounds of the invention and their derived salts selectively increase, in the majority of cases, the contraction of animal veins produced by noradrenaline, by electrical stimulation, or by a depolarizing hyperpotassic solution. By way of example, there is the contractile effect of different compounds on the saphenous vein of rabbits, precontracted by a depolarizing physiological solution with a potassium concentration equal to 40 mM; the maximum effect produced by each compound is expressed as the percentage of maximum contraction induced by the depolarizing hyperpotassic solutions and in ED50 values: […]

The subject of data set [2] is inflammatory hyperpermeability induced by zymosan in rats. Description: Effects on capillary hyperpermeability induced by zymosan in rats (Evans Blue albumin extravasation). Type of data set: in vivo, rat (Wistar). As to conditions: rat, oral. As for the experimental part: (§1) As for the in vivo studies, they are administered intravenously or intraperitoneally in the form of an aqueous solution with or without DMSO, or orally in a 1% carboxymethylcellulose suspension, administered with the use of a force-feed probe at a volume of 10 mL/kg.
Effects on induced capillary hyperpermeability
Vascular permeability is studied in vivo by measuring albumin extravasation, the quantity of which is determined by a coloring agent bonded to the albumin (Evans Blue). Hyperpermeability is induced by the intradermal injection of a histamine, bradykinin, or zymosan solution.
The technique is derived from that described by Beach and Steinetz, Journal of Pharmacology and Experimental Therapy, 131: 400-406, 1961.
The rats (Wistars, 200 to 230 g) are shaved on the abdominal wall 1 h before the start of the experiment. The product to be tested is injected i.p. or orally 1-4 h prior to sacrificing. The rats are anesthetized using a halothane mixture. They then receive an intradermal injection in the abdomen of 0.10 to 0.15 mL of an inflammatory agent (by histamine 6.7 or 10 μg) and an i.v. injection of 1 mL of Evans blue 0.5% solution in the vein of the penis. These injections are carried out 30 min prior to sacrificing.
30 min after these two injections, the rats are sacrificed by cervical dislocation.
At the locus of injection of the inflammatory agent, the skin is cut off and placed in ground-neck glass tubes containing 3 mL of fuming hydrochloric acid. Digestion of the skin is carried out by contact [with HCl] of at least 1 h in a double boiler at 37° C.; 3 mL of benzalkonium chloride at 12.8% are then added. After leaving undisturbed for 30 min, 7 mL of dichloromethane are added. The tubes are periodically agitated for 1 h. The aqueous phase is eliminated by aspiration and the organic dichloromethane phase is filtered. The optical densities are quantified by absorption spectrophotometry at a 620 nm wavelength, against a blank [control] containing only dichloromethane.
The averages for optical density of the different lots of experimental and control animals are calculated, then the variation between the data for the experimental animals and those for the control animals is calculated.
By way of illustration, the oral administration of certain compounds of the invention and their derived salts reduce inflammatory hyperpermeability induced by zymosan in rats in doses generally between 0.01 and 5 mg/kg: […]

The test system of data set [3] is capillary resistance in rats. In words: Effects on capillary resistance (petechial index, negative pressure) after oral administration in rats. Type of data set: in vivo, rat (male Wistar). Particulars: rat. How it is done: as §1
Effects on capillary resistance:
The increase in capillary resistance is detected by the change in the petechial index (negative pressure inducing the extravasation of erythrocytes), measured by a method derived from Parrot's angiosterrometer.
The study is carried out on male Wistar rats weighing an average of 200 g (aged approximately 6 weeks). The lower back area is shaved, then depilated with the use of a paste based on a by-product of thioglycolic acid and calcium hydroxide. After approximately 30 min, the skin is rinsed abundantly and dried.
On the day of the study, the rats are kept nonconstrained. A low pressure of 80 mm of mercury is applied.
The minimum low pressure at which the petechiae appear expressed in mm of mercury, the value of the base capillary resistance (before any treatment). Two measurements are carried out for each trial on different places on the back. The rats are treated orally. After a predetermined amount of time (generally 2, 4, or 6 h) after the treatment, the test is renewed on different areas of skin, until petechiae appear, yielding a new low pressure index. All measurements are carried out in the blind mode.
The variation between the means of the base capillary resistance and post-treatment capillary resistance is calculated for the experimental animals, for each treatment time and compared to the control group (excipient only) or the reference group.
By way of example, the oral administration of certain compounds of the invention and their derived salts increases the capillary resistance in rats at doses generally between 0.01 and 5 mg/kg: […]

Where “and” joins values, the source holds several entries; their conditions need not be identical. Equal entries are not always repeated.

`O=C1C(=O)c2c(nc3ccccn23)-c2ccccc21` [Example a, 5,6-Dihydro-5,6-dioxo-naphtho[1',2':4,5]imidazo[1,2-a] pyridine]: in the data set with mice, the mortality result is recorded as “no mortality was observable” and the toxic effect entry is on record as “no toxic effect was observable”. For the same compound, in data set [1], the Emax (commonly the greatest response seen or fitted, relative to the assay's reference) is 32 ± 7% and the EC50 is 306 nM. Besides, in data set [2] (5 mg/kg), the “Effect at 2 hours (hyperpermeability induced by zymosan)” value (shortened to “Effect at 2 hours”) was -1 % of control and the “Effect at 4 hours (hyperpermeability induced by zymosan)” value is reported as -28 % of control.

As for `Cc1ccn2c3c(nc2c1)-c1ccccc1C(=O)C3=O` [Example 2, 5,6-Dihydro-5,6-dioxo-10-methyl-naphtho[1',2':4,5]-imidazo[1,2-a] pyridine], in the data set with mice, the mortality entry was “no mortality was observable” and the toxic effect entry was “no toxic effect was observable”. For the same compound, in data set [1], the maximal effect (Emax) amounted to 28 ± 4% and the EC50 stood at 271 nM. In addition, in data set [3] (5 mg/kg), the “Effect at 4 hours (capillary resistance)” value is 11 % of control and the “Effect at 6 hours (capillary resistance)” value was 13 % of control. For the same compound, in data set [2] (0.1 mg/kg), the “Effect at 2 hours” value is -10 % of control and the “Effect at 4 hours (hyperpermeability induced by zymosan)” value was -15 % of control.

Take `Cc1cccn2c3c(nc12)-c1ccccc1C(=O)C3=O` [Example 3, 5,6-Dihydro-5,6-dioxo-11-methyl-naphtho[1',2':4,5]-imidazo[1,2-a] pyridine]: in data set [1], the Emax was determined as 18 ± 4% and the EC50 stood at 200 nM. For the same compound, in data set [2] (5 mg/kg), the “Effect at 2 hours” value is on record as -13 % of control and the “Effect at 4 hours (hyperpermeability induced by zymosan)” value is -12 % of control.

For the compound `O=C1C(=O)c2c(nc3cc(Cl)ccn23)-c2ccccc21` [Example 12, 10-Chloro-5,6-dihydro-5,6-dioxo-naphtho[1',2':4,5]-imidazo[1,2-a] pyridine], in data set [1], the maximal effect (Emax) was found to be 13 ± 3% and the EC50 amounted to 58 nM.

With `O=C1C(=O)c2c(nc3ccc(Cl)cn23)-c2ccccc21` [Example c, 9-Chloro-5,6-dihydro-5,6-dioxo-naphtho[1',2':4,5]-imidazo[1,2-a]pyridine], in the data set on mice, the mortality result is on record as “no mortality was observable” and the toxic effect result is “no toxic effect was observable”. In data set [1], the Emax was 27 ± 4% and the EC50 was 157 nM. In addition, the “Effect at 6 hours (capillary resistance)” value in data set [3] (0.1 mg/kg) is 29 % of control and 17 % of control. In addition, in data set [3] (5 mg/kg), the “Effect at 4 hours (capillary resistance)” value is given as 17 % of control and the “Effect at 6 hours (capillary resistance)” value is reported as 10 % of control. Also, in data set [2] (0.1 mg/kg), the “Effect at 2 hours” value is given as -14 % of control and the “Effect at 4 hours (hyperpermeability induced by zymosan)” value is -11 % of control.

Consider `O=C1c2ncccc2C(=O)c2c1nc1ccccn21` [Example h, 6,11-Dihydro-6,11-dioxo-pyrido[1',2':1,2]-imidazo[5,4-g]quinoline], for which, in data set [1], the maximum response (Emax) was found to be 18 ± 3% and the EC50 stood at 67 nM. For the same compound, in data set [3] (0.1 mg/kg), the “Effect at 4 hours (capillary resistance)” value is on record as 19 % of control and the “Effect at 6 hours (capillary resistance)” value is 13 % of control. Moreover, in data set [2] (0.1 mg/kg), the “Effect at 2 hours” value was -23 % of control and the “Effect at 4 hours (hyperpermeability induced by zymosan)” value is -5 % of control.

As for `O=C1C(=O)c2c(nc3ncccn23)-c2ccccc21` [Example f], in data set [1], the Emax came to 56 ± 7% and the EC50 was 450 nM.

For `Cc1ccc2nc3c(n2c1)C(=O)C(=O)c1ccccc1-3` [Example 1, 5,6-Dihydro-5,6-dioxo-9-methyl-naphtho[1',2':4,5]-imidazo[1,2-a]pyridine], in data set [1], the Emax was 20 ± 4% and the EC50 was 170 nM.

The values above are taken from patent US5981544A, “Mono-- or diketone tetracyclic derivatives and therapeutical uses thereof” (Laboratoire Innothera, priority 1995, dated 1999).
